In PubChem BioAssay AID256 (DTP/NCI, 2004) one finds T/C data, which are given here for 25 molecules.

The experiment deals with CD2F1 mice, L1210 leukemia ip, survival T/C. The experiment in a line: NCI In Vivo Anticancer Drug Screen. Data for tumor model L1210 Leukemia (intraperitoneal) in CD2F1 (CDF1) mice. The settings on record: higher = longer survival. An outline of the steps: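 Read-out first: treated-group measurement over vehicle-control measurement, expressed as a ratio. Animals bore a transplanted tumor line and were dosed with compound or vehicle.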

[1] abbreviates: endpoint: mean survival time, dose: 100.0 mg/kg/injection, schedule: Q01DX009 (ip), vehicle: saline with Tween-80.
Setting [2] is: endpoint: mean survival time, dose: 200.0 mg/kg/injection, schedule: Q01DX009 (ip), vehicle: saline with Tween-80.
Where [3] appears, read: endpoint: mean survival time, dose: 50.0 mg/kg/injection, schedule: Q01DX009 (ip), vehicle: saline with Tween-80.
Setting [4] is: endpoint: mean survival time, dose: 100.0 mg/kg/injection, schedule: Q01DX001 (ip), vehicle: saline with Tween-80.
Setting [5] is: endpoint: mean survival time, dose: 200.0 mg/kg/injection, schedule: Q01DX001 (ip), vehicle: saline with Tween-80.
The mark [6] stands for this setting: endpoint: mean survival time, dose: 400.0 mg/kg/injection, schedule: Q01DX001 (ip), vehicle: saline with Tween-80.
[7] abbreviates: endpoint: mean survival time, dose: 75.0 mg/kg/injection, schedule: Q01DX009 (ip), vehicle: saline.
Where [8] appears, read: endpoint: mean survival time, dose: 150.0 mg/kg/injection, schedule: Q01DX009 (ip), vehicle: saline.

Several values for one entry are separate records, joined by “and”; a condition that tells them apart may be missing. Equal entries are not always repeated. Toxic doses and inconclusive results are not listed.

With `CCCCNC(=S)N(CCCC)CCCC`, the T/C is 102 % of control under setting [1] and 87 % of control under setting [2].
As for `NC(CSC(c1ccccc1)(c1ccccc1)c1ccccc1)C(=O)O` (stereo unspecified) (tested in a mixture with another compound), the T/C reads like this: (endpoint: mean survival time, dose: 5.5 mg/kg/injection, schedule: Q04DX003 (ip), vehicle: water) 105 % of control; (endpoint: mean survival time, dose: 8.3 mg/kg/injection, schedule: Q04DX003 (ip), vehicle: water) 102 % of control; (endpoint: mean survival time, dose: 12.4 mg/kg/injection, schedule: Q04DX003 (ip), vehicle: water) 102 % of control; (endpoint: mean survival time, dose: 18.6 mg/kg/injection, schedule: Q04DX003 (ip), vehicle: water) 108 % of control; (endpoint: mean survival time, dose: 28.0 mg/kg/injection, schedule: Q04DX003 (ip), vehicle: water) 103 % of control; (endpoint: mean survival time, dose: 42.0 mg/kg/injection, schedule: Q04DX003 (ip), vehicle: water) 103 % of control. Further, the T/C (endpoint: mean survival time, dose: 63.0 mg/kg/injection, schedule: Q04DX003 (ip), vehicle: water) was 90 % of control.
On to `CCCC/C=C\C(=O)OC`, for which the T/C runs as follows: under setting [3], 101 % of control; under setting [1], 104 % of control; under setting [2], 101 % of control.
For `CC(=O)c1cccc([N+](=O)[O-])c1`, the T/C was 105 % of control (endpoint: mean survival time, dose: 100.0 mg/kg/injection, schedule: Q01DX009 (ip), vehicle: other); 97 % of control (endpoint: mean survival time, dose: 200.0 mg/kg/injection, schedule: Q01DX009 (ip), vehicle: other); 102 % of control (endpoint: mean survival time, dose: 400.0 mg/kg/injection, schedule: Q01DX009 (ip), vehicle: other).
As for `O=C(NO)c1cccc(O)c1O`, the T/C (endpoint: median survival time, dose: 200.0 mg/kg/injection, schedule: Q01DX009 (ip), vehicle: distilled water + Tween-80) is 162 % of control; the T/C (endpoint: median survival time, dose: 300.0 mg/kg/injection, schedule: Q01DX009 (ip), vehicle: distilled water + Tween-80) was 170 % of control; the T/C (endpoint: median survival time, dose: 450.0 mg/kg/injection, schedule: Q01DX009 (ip), vehicle: distilled water + Tween-80) is 104 % of control.
For `CCOP(=O)(Nc1ccc(F)cc1)OCC`, the T/C reads like this: (endpoint: mean survival time, dose: 50.0 mg/kg/injection, schedule: Q01DX001 (ip), vehicle: carboxymethylcellulose (CMC)) 106 % of control; (endpoint: mean survival time, dose: 100.0 mg/kg/injection, schedule: Q01DX001 (ip), vehicle: carboxymethylcellulose (CMC)) 96 % of control; (endpoint: mean survival time, dose: 200.0 mg/kg/injection, schedule: Q01DX001 (ip), vehicle: carboxymethylcellulose (CMC)) 100 % of control; (endpoint: mean survival time, dose: 400.0 mg/kg/injection, schedule: Q01DX001 (ip), vehicle: carboxymethylcellulose (CMC)) 102 % of control.
As to `COC1OC2COc3ccccc3OC2C(N)C1SSC1C(OC)OC2COc3ccccc3OC2C1N` (stereo unspecified), the T/C reads like this: (endpoint: mean survival time, dose: 75.0 mg/kg/injection, schedule: Q01DX001 (ip), vehicle: saline with Tween-80) 94 % of control; (endpoint: mean survival time, dose: 150.0 mg/kg/injection, schedule: Q01DX001 (ip), vehicle: saline with Tween-80) 95 % of control; (endpoint: mean survival time, dose: 300.0 mg/kg/injection, schedule: Q01DX001 (ip), vehicle: saline with Tween-80) 94 % of control.
In the case of `CCCCOC(=O)CC(O)C(=O)OCCCC` (stereo unspecified), the T/C is 113 % of control under setting [3], 107 % of control under setting [1] and 103 % of control under setting [2].
Take `COc1ccc(NC(=O)c2ccc(S(=O)(=O)F)cc2)cc1`: the T/C under setting [4] is 97 % of control, the T/C under setting [5] was 95 % of control and the T/C under setting [6] is 94 % of control.
Take `CCC(/C=N\O)CC`: the T/C (endpoint: mean survival time, dose: 100.0 mg/kg/injection, schedule: Q01DX001 (ip), vehicle: saline) was 100 % of control and the T/C (endpoint: mean survival time, dose: 200.0 mg/kg/injection, schedule: Q01DX001 (ip), vehicle: saline) is 108 % of control.
Take `CN(C)CCCNc1c2ccccc2nc2cccc([N+](=O)[O-])c12`: the T/C runs as follows: (endpoint: mean survival time, dose: 0.2 mg/kg/injection, schedule: Q04DX002 (ip), vehicle: saline + alcohol) 103 % of control; (endpoint: mean survival time, dose: 0.4 mg/kg/injection, schedule: Q04DX002 (ip), vehicle: saline + alcohol) 103 % of control; (endpoint: mean survival time, dose: 0.8 mg/kg/injection, schedule: Q04DX002 (ip), vehicle: saline + alcohol) 100 % of control.
On to `NNC(=O)c1cc(Cl)cc(C(=O)NN)n1`, for which the T/C under setting [3] is 97 % of control.
On to `O=C(Nc1ccc([N+](=O)[O-])cc1)OCc1ccccc1`, for which the T/C was 104 % of control (endpoint: mean survival time, dose: 50.0 mg/kg/injection, schedule: Q04DX002 (ip), vehicle: saline with Tween-80); 100 % of control (endpoint: mean survival time, dose: 100.0 mg/kg/injection, schedule: Q04DX002 (ip), vehicle: saline with Tween-80); 108 % of control (endpoint: mean survival time, dose: 200.0 mg/kg/injection, schedule: Q04DX002 (ip), vehicle: saline with Tween-80).
Take `COc1cccc(CC2NCCc3c2[nH]c2ccccc32)c1` (stereo unspecified): the T/C was 98 % of control (endpoint: mean survival time, dose: 25.0 mg/kg/injection, schedule: Q01DX001 (ip), vehicle: saline with Tween-80); 90 % of control (endpoint: mean survival time, dose: 50.0 mg/kg/injection, schedule: Q01DX001 (ip), vehicle: saline with Tween-80); 87 % of control under setting [4].
As to `C=CC(O)Cc1ccccc1` (stereo unspecified) (tested in a mixture with another compound), the T/C is 98 % of control under setting [7]; 101 % of control under setting [8]; 107 % of control (endpoint: mean survival time, dose: 300.0 mg/kg/injection, schedule: Q01DX009 (ip), vehicle: saline).
Regarding `Clc1ccc(C2c3ccccc3C[n+]3ccccc32)cc1` (stereo unspecified), the T/C is, setting by setting: (endpoint: mean survival time, dose: 12.5 mg/kg/injection, schedule: Q04DX003 (ip), vehicle: Klucel (hydroxypropylcellulose) (HPC)) 93 % of control; (endpoint: mean survival time, dose: 25.0 mg/kg/injection, schedule: Q04DX003 (ip), vehicle: Klucel (hydroxypropylcellulose) (HPC)) 93 % of control.
As for `S=C(Nc1ccccc1)N1CCCC1`, the T/C is, setting by setting: under setting [3], 96 % of control; under setting [1], 100 % of control; under setting [2], 102 % of control.
Take `O=C(Nc1ccc(Br)cn1)Nc1cccc(Cl)c1Cl`: the T/C reads like this: under setting [3], 94 % of control; under setting [1], 101 % of control; under setting [2], 105 % of control.
As for `O=[N+]([O-])c1ccc(NCS(=O)(=O)O)cc1`, the T/C by setting is: under setting [4], 91 % of control; under setting [5], 94 % of control; under setting [6], 87 % of control.
On to `S=c1nc(-c2ccccc2)c(-c2ccccc2)n[nH]1`, for which the T/C under setting [7] is 93 % of control and the T/C under setting [8] was 98 % of control.
For `CONC(=O)c1ccccc1N=NN(C)C`, the T/C is, setting by setting: (endpoint: mean survival time, dose: 18.75 mg/kg/injection, schedule: Q01DX009 (ip), vehicle: Klucel (hydroxypropylcellulose) (HPC)) 117 % of control and 107 % of control; (endpoint: mean survival time, dose: 37.5 mg/kg/injection, schedule: Q01DX009 (ip), vehicle: Klucel (hydroxypropylcellulose) (HPC)) 117 % of control and 109 % of control; (endpoint: mean survival time, dose: 75.0 mg/kg/injection, schedule: Q01DX009 (ip), vehicle: Klucel (hydroxypropylcellulose) (HPC)) 101 % of control.
Turning to `CCOC(=O)/C=C/c1ccc(O)cc1`, the T/C was 102 % of control (endpoint: mean survival time, dose: 100.0 mg/kg/injection, schedule: Q04DX003 (ip), vehicle: Klucel (hydroxypropylcellulose) (HPC)); 98 % of control (endpoint: mean survival time, dose: 200.0 mg/kg/injection, schedule: Q04DX003 (ip), vehicle: Klucel (hydroxypropylcellulose) (HPC)); 98 % of control (endpoint: mean survival time, dose: 400.0 mg/kg/injection, schedule: Q04DX003 (ip), vehicle: Klucel (hydroxypropylcellulose) (HPC)).
`NC(=S)N/N=C/c1ccccc1N`: the T/C by setting is: (endpoint: mean survival time, dose: 100.0 mg/kg/injection, schedule: Q04DX003 (ip), vehicle: acetone) 103 % of control; (endpoint: mean survival time, dose: 200.0 mg/kg/injection, schedule: Q04DX003 (ip), vehicle: acetone) 97 % of control; (endpoint: mean survival time, dose: 400.0 mg/kg/injection, schedule: Q04DX003 (ip), vehicle: acetone) 104 % of control.
For the molecule `CC1CCN(N=Nc2ccc(Br)cc2-c2nc(N)c3cc(Br)ccc3n2)CC1`, the T/C was 92 % of control (endpoint: mean survival time, dose: 6.25 mg/kg/injection, schedule: Q01DX005 (ip), vehicle: other); 103 % of control (endpoint: mean survival time, dose: 12.5 mg/kg/injection, schedule: Q01DX005 (ip), vehicle: other); 95 % of control (endpoint: mean survival time, dose: 25.0 mg/kg/injection, schedule: Q01DX005 (ip), vehicle: other); 92 % of control (endpoint: mean survival time, dose: 50.0 mg/kg/injection, schedule: Q01DX005 (ip), vehicle: other); 92 % of control (endpoint: mean survival time, dose: 100.0 mg/kg/injection, schedule: Q01DX005 (ip), vehicle: other).
For the molecule `c1ccc2c(c1)-c1nc3ccccc3cc1C2N1CCCCC1` (stereo unspecified), the T/C is, setting by setting: (endpoint: mean survival time, dose: 100.0 mg/kg/injection, schedule: Q01DX009 (ip), vehicle: saline) 105 % of control; (endpoint: mean survival time, dose: 200.0 mg/kg/injection, schedule: Q01DX009 (ip), vehicle: saline) 103 % of control; (endpoint: mean survival time, dose: 400.0 mg/kg/injection, schedule: Q01DX009 (ip), vehicle: saline) 97 % of control.
